“Also recorded” adds a separate entry of the source.
Experiments:
Format in all cases: cell-based, murine
[1] = system: NO production in LPS-activated microglial BV-2 cells; assay: Inhibition of NO production in LPS-activated microglial BV-2 cells (Griess method); details: for Inhibitory effect on NO production (in words): LPS-activated BV-2 cells; for IC50: Mus musculus, LPS (150 ng/mL)-stimulated BV-2 cells, 15 min pretreatment, 24 h, mean ± SD (n = 3), read-out: IC50 (inhibitory effect on NO production)
Method: (§1) The murine BV-2 microglial cell line cultured followed the procedure of our previous reports (Hsiao et al. [2020]). In summary, BV-2 cells were cultured with DMEM containing Fetal Bovine Serum (FBS), streptomycin/penicillin, Lglutamine and HEPES at 37 °C, humidified 5% CO2. Prior to the study, BV-2 cells were cultured in FBS media (5%), pretreated with carrier media or various concentrations of compounds for 15 min, and eventually collected after 24 h of stimulation with LPS (150 ng/mL).
The level of nitric oxide (NO) metabolites from the production of activated BV-2 cells was measured with reference to the Griess method (Wang et al. [2018]).

[2] = Cell viability (MTT test) in BV-2 cells; details: mouse, BV-2 microglial cells, 24 h, MTT, mean ± SD (n = 3), read-out: Cell viabillity (%)
Method: as §1
(§2) As in our previous report, cellular viability was assessed using MTT test where BV-2 cells, along with other compounds were treated for 24 h (Hsiao et al. [2020]).

microglial BV-2 cells = assay: Cell viability (MTT test) in BV-2 cells; details: 10 µM
Method: as §1, §2

| SMILES | IC50 [1] [µM] | Inhibitory effect on NO production (in words) [1] | viability at 24 h, 10 µM [2] [%] | Cytotoxicity against microglial BV-2 cells (in words) (microglial BV-2 cells) |
| --- | --- | --- | --- | --- |
| CC(C)[C@@H](C)/C=C/[C@@H](C)[C@H]1CC[C@H]2C3=CC=C4C[C@@H](O)CC[C@]4(C)[C@H]3CC[C@]12C [Compound 6, ergosterol] | 7.2 ± 1.4 | potently inhibitory effects; also recorded: potential inhibitory activities; also recorded: considerable inhibitory effect | 90.8 ± 6.7 | no significant cytotoxic effect |
| Cc1cc(O)c2c(c1)O[C@@]1(C)OC[C@H](C)C1C2 (stereo partly shown) [Compound 2, xyloketal K] | 30.1 ± 3 | weak inhibitory effects; also recorded: weak inhibitory activities | 98.3 ± 7.6 | no cytotoxic activity |
| C/C=C/C=C(\CO)C(/C=C/C)CO (stereo not shown) [Compound 1, nigaurdiol] | 32.2 ± 3.3 | weak inhibitory effects; also recorded: weak inhibitory activities | 103 ± 8.8 | no cytotoxic activity |
| COc1cc(O)c2c(c1O)[C@@H](O)[C@@H]1C[C@](C)(O)[C@H](O)C[C@@H]1C2=O [Compound 5, xylanthraquinone] | 32.1 ± 6.7 | weak inhibitory effects; also recorded: weak inhibitory activities | 103 ± 6.9 | no cytotoxic activity |

The next molecules have a lower IC50 [1] than those just listed; values first:

| IC50 [1] [µM] | SMILES | Inhibitory effect on NO production (in words) [1] | viability at 24 h, 10 µM [2] [%] | Cytotoxicity against microglial BV-2 cells (in words) (microglial BV-2 cells) |
| --- | --- | --- | --- | --- |
| 6 ± 0.3 | COc1cc(/C=C/C(=O)CC(=O)/C=C/c2ccc(O)c(OC)c2)ccc1O [Curcumin, curcumin, reference compound] |  |  |  |
| 2.3 ± 0.3 | COC1=CC(=O)c2c(O)c3c(c(O)c2C1=O)C[C@](C)(O)[C@H](O)[C@H]3O [Compound 3, bostrycin] | potently inhibitory effects; also recorded: potential inhibitory activities | 10.7 ± 0.8 | significant cytotoxicity |
| 2.5 ± 0.5 | COC1=CC(=O)c2c(O)c3c(c(O)c2C1=O)C[C@](C)(O)[C@H](O)C3 [Compound 4, deoxybostrycin] | potently inhibitory effects; also recorded: potential inhibitory activities | 11.3 ± 1.3 | significant cytotoxicity |
